Experimental data: US20130065818A1, “Arylamide Compounds And Compositions And Uses Thereof” (POLYMEDIX, priority 2006, published 2013)
Like-named read-outs stand apart in the source and are kept apart here.

How the values were obtained:
[1] = system: Pseudomonas aeruginosa; assay: MIC, 25 ocular isolates, broth microdilution (Example 8); type: cell-based
Method in brief: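 Broth microdilution in Mueller-Hinton broth, polypropylene plates, inoculum from 0.5 McFarland suspension diluted 0.05 ml into 5 ml; final test agent 64–0.0625 μg/ml (128–0.125 μg/ml for P. aeruginosa) in 0.01% acetic acid, 0.2% BSA diluent. Incubated 37° C overnight; MIC read visually as lowest concentration inhibiting visible growth.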

[2] = system: S. aureus ATCC 27660; assay: MIC, control bacteria (Example 8); type: cell-based
Experimental: • Mueller-Hinton Broth in tubes was inoculated with 25 ocular isolates of Staphylococcus aureus fluoroquinolone-susceptible, Staphylococcus aureus fluoroquinolone-resistant, Staphylococcus epidermidis (Coagulase-negative Staphylococcus) fluoroquinolone-susceptible, Staphylococcus epidermidis (Coagulase-negative Staphylococcus) fluoroquinolone-resistant, Pseudomonas aeruginosa and Serratia marcescens, plus two controls (Staphylococcus aureus and E. coli) and incubated at 37° C. overnight on a shaker set at 250 rpm.
Control Bacteria—The two control bacteria (Staphylococcus aureus and E. coli) were treated as above.
Control Bacteria Set #1—this set of control bacteria were treated as the Streptococcus pneumoniae, Streptococcus viridans and Moraxella species (including Moraxella catarrhalis) test isolates above; the control bacteria underwent the same conditions as the test Streptococcus pneumoniae, Streptococcus viridans and Moraxella species (including Moraxella catarrhalis) isolates. This set of control bacteria was to determine whether there was a difference in the MICs by performing the MIC determinations in 2% lysed horse red blood cells with the standard method performed in Mueller-Hinton broth.
Control Bacteria Set #2—the control bacteria were added to 5 ml of Mueller-Hinton Broth without the 2% lysed horse red blood cells to achieve the standard inoculum concentration. This set of control bacteria is the normal control to determine whether the compounds are at the target MICs.
Control Bacteria Set #1—this set of control bacteria were treated as the Haemophilus influenzae test isolates above; the control bacteria underwent the same conditions as the test Haemophilus influenzae isolates. This set of control bacteria is to determine whether there was a difference in the MICs by performing the MIC determinations in HTM broth with the standard method performed in Mueller-Hinton broth.
Control Bacteria Set #2—the control bacteria were added to 5 ml of Mueller-Hinton Broth to achieve the standard inoculum concentration. This set of control bacteria is the normal control to determine whether the compounds are at the target MICs.
Ninety μl of the bacterial suspensions was dispensed in each well from column 1 to column 12. Each bacterial isolate was placed in one row of a 96 well polypropylene plate containing the test agents. The plates were placed on shaker at 15 minutes at room temperature, and then incubated at 37° C. overnight. MICs were determined visually as the lowest concentration of drug that inhibits visible bacterial growth.

[3] = Control Bacteria S. aureus ATCC 27660

N=C(N)NCCCCC(=O)Nc1cc(C(F)(F)F)cc(NC(=O)c2cc(C(=O)Nc3cc(C(F)(F)F)cc(NC(=O)CCCCNC(=N)N)c3O[C@@H]3CCNC3)ncn2)c1O[C@@H]1CCNC1 [Oligomer 4]
0.098 µg/mL: MIC ([2]; S. aureus ATCC 27660) | MIC ([2]; Staphylococcus aureus, ATCC27660, S. aureus ATCC 27660, MIC previously obtained (target MIC), printed in parentheses, read-out: MIC for Control Bacteria within the parentheses) | MIC ([2]; Staphylococcus aureus, ATCC27660, S. aureus ATCC27660, read-out: MIC) | MIC ([2]; Staphylococcus aureus, ATCC27660, reference MIC printed in parentheses beside the day's control value, read-out: MIC for Control Bacteria (within the parentheses))
4 µg/mL: MIC50 ([1]; 25 isolates, Row 13) | MIC ([1]; Pseudomonas aeruginosa, 25 ocular isolates, read-out: Median MIC) | MIC ([1]; Pseudomonas aeruginosa, isolate 5—K1651, read-out: MIC) | MIC ([1]; Pseudomonas aeruginosa, isolate 6—K1649, read-out: MIC) | MIC ([1]; Pseudomonas aeruginosa, isolate 10—K1633, read-out: MIC) | MIC ([1]; Pseudomonas aeruginosa, isolate 11—K1632, read-out: MIC) | MIC ([1]; Pseudomonas aeruginosa, isolate 13—K1629, read-out: MIC) | MIC ([1]; Pseudomonas aeruginosa, isolate 16—K1625, read-out: MIC) | MIC ([1]; Pseudomonas aeruginosa, isolate 17—K1562, read-out: MIC) | MIC ([1]; Pseudomonas aeruginosa, isolate 18—K1613, read-out: MIC) | MIC ([1]; Pseudomonas aeruginosa, isolate 21—K1588, read-out: MIC) | MIC ([1]; Pseudomonas aeruginosa, isolate 22—K1554, read-out: MIC) | MIC ([1]; Pseudomonas aeruginosa, isolate 25—K1576, read-out: MIC) | MIC ([1]; Pseudomonas aeruginosa, n=25 per group, read-out: Median MIC) | MIC50 ([1]; Pseudomonas aeruginosa, 25 isolates, Summary of Results, read-out: MIC50) | MIC90 ([1]; Pseudomonas aeruginosa, 25 isolates, Summary of Results, read-out: MIC90) | MIC ([1]; Pseudomonas aeruginosa, 25 isolates, Summary of Results, read-out: Median MIC) | MIC50 ([1]; n=25 per group) | MIC90 ([1]; n=25 per group) | MIC ([2]; Control Bacteria Set #1, run with Haemophilus influenzae MIC test, read-out: MIC)
0.5 µg/mL: MIC ([1]; Pseudomonas aeruginosa, isolate 8—K1636, read-out: MIC) | MIC ([2]; S. aureus ATCC 27660, new batches, Control Only 4) | MIC ([2]; Staphylococcus aureus, ATCC27660, Control Only 4, read-out: MIC of control bacteria on day of MIC testing) | MIC ([2]; Staphylococcus aureus, ATCC27660, S. aureus ATCC 27660, control bacteria run with Pseudomonas aeruginosa MIC test, read-out: MIC) | MIC ([2]; Staphylococcus aureus, ATCC27660, control for MIC test HI (Control Bacteria Set #2), read-out: MIC of control bacteria on day of MIC testing) | MIC ([2]; Staphylococcus aureus, ATCC27660, control for MIC test MS (Control Bacteria Set #2), read-out: MIC of control bacteria on day of MIC testing) | MIC ([2]; Staphylococcus aureus, ATCC27660, control for MIC test PA, read-out: MIC of control bacteria on day of MIC testing)
2 µg/mL: MIC ([1]; Pseudomonas aeruginosa, isolate 1—K1673, read-out: MIC) | MIC ([1]; Pseudomonas aeruginosa, isolate 2—K1668, read-out: MIC) | MIC ([1]; Pseudomonas aeruginosa, isolate 3—K1662, read-out: MIC) | MIC ([1]; Pseudomonas aeruginosa, isolate 4—K1657, read-out: MIC) | MIC ([1]; Pseudomonas aeruginosa, isolate 9—K1634, read-out: MIC) | MIC ([1]; Pseudomonas aeruginosa, isolate 14—K1627, read-out: MIC) | MIC ([1]; Pseudomonas aeruginosa, isolate 19—K1553, read-out: MIC) | MIC ([1]; Pseudomonas aeruginosa, isolate 20—K1594, read-out: MIC) | MIC ([1]; Pseudomonas aeruginosa, isolate 23—K1580, read-out: MIC) | MIC ([1]; Pseudomonas aeruginosa, isolate 24—K1577, read-out: MIC) | MIC ([2]; S. aureus ATCC 27660, Control for MIC Test SA-FQS, first batch) | MIC ([2]; Staphylococcus aureus, ATCC27660, S. aureus ATCC 27660, Control Bacteria Set #1 (same conditions as test isolates), run with Streptococcus viridans group MIC test, read-out: MIC) | MIC ([2]; Staphylococcus aureus, ATCC27660, S. aureus ATCC 27660, control bacteria run with S. aureus fluoroquinolone-susceptible MIC test, read-out: MIC) | MIC ([2]; Staphylococcus aureus, ATCC27660, control for MIC test SA-FQS, read-out: MIC of control bacteria on day of MIC testing)
approximately 4 fold: Decrease of activity by addition of 2% lysed horse red blood cells to Mueller-Hinton broth [2, 3]
0.25 µg/mL: MIC ([2]; S. aureus ATCC 27660, new batches, Control Only 1) | MIC ([2]; S. aureus ATCC 27660, new batches, Control Only 2) | MIC ([2]; S. aureus ATCC 27660, new batches, Control Only 3) | MIC ([2]; Staphylococcus aureus, ATCC27660, Control Only 1, read-out: MIC of control bacteria on day of MIC testing) | MIC ([2]; Staphylococcus aureus, ATCC27660, Control Only 2, read-out: MIC of control bacteria on day of MIC testing) | MIC ([2]; Staphylococcus aureus, ATCC27660, Control Only 3, read-out: MIC of control bacteria on day of MIC testing) | MIC ([2]; Staphylococcus aureus, ATCC27660, S. aureus ATCC 27660, Control Bacteria Set #2 (Mueller-Hinton Broth), run with Streptococcus pneumoniae MIC test, read-out: MIC) | MIC ([2]; Staphylococcus aureus, ATCC27660, S. aureus ATCC 27660, control bacteria run with S. epidermidis fluoroquinolone-resistant MIC test, read-out: MIC) | MIC ([2]; Staphylococcus aureus, ATCC27660, S. aureus ATCC 27660, control bacteria run with S. epidermidis fluoroquinolone-susceptible MIC test, read-out: MIC) | MIC ([2]; Staphylococcus aureus, ATCC27660, S. aureus ATCC 27660, control bacteria run with Serratia marcescens MIC test, read-out: MIC) | MIC ([2]; Staphylococcus aureus, ATCC27660, control for MIC test SE-FQR, read-out: MIC of control bacteria on day of MIC testing) | MIC ([2]; Staphylococcus aureus, ATCC27660, control for MIC test SE-FQS, read-out: MIC of control bacteria on day of MIC testing) | MIC ([2]; Staphylococcus aureus, ATCC27660, control for MIC test SM, read-out: MIC of control bacteria on day of MIC testing) | MIC ([2]; Staphylococcus aureus, ATCC27660, control for MIC test SP, read-out: MIC of control bacteria on day of MIC testing)
8 µg/mL: MIC ([1]; Pseudomonas aeruginosa, isolate 7—K1564, read-out: MIC) | MIC ([1]; Pseudomonas aeruginosa, isolate 12—K1631, read-out: MIC) | MIC ([1]; Pseudomonas aeruginosa, isolate 15—K1626, read-out: MIC)
approximately 8 fold: Decrease of activity by use of HTM broth [2, 3]
1 µg/mL: MIC ([2]; S. aureus ATCC 27660, Control for MIC Test SA-FQR, first batch) | MIC ([2]; Staphylococcus aureus, ATCC27660, Control Bacteria Set #1, run with Moraxella MIC test, read-out: MIC) | MIC ([2]; Staphylococcus aureus, ATCC27660, S. aureus ATCC 27660, Control Bacteria Set #1 (same conditions as test isolates), run with Streptococcus pneumoniae MIC test, read-out: MIC) | MIC ([2]; Staphylococcus aureus, ATCC27660, S. aureus ATCC 27660, Control Bacteria Set #2 (Mueller-Hinton Broth), run with Streptococcus viridans group MIC test, read-out: MIC) | MIC ([2]; Staphylococcus aureus, ATCC27660, S. aureus ATCC 27660, control bacteria run with S. aureus fluoroquinolone-resistant MIC test, read-out: MIC) | MIC ([2]; Staphylococcus aureus, ATCC27660, control for MIC test SA-FQR, read-out: MIC of control bacteria on day of MIC testing) | MIC ([2]; Staphylococcus aureus, ATCC27660, control for MIC test SV, read-out: MIC of control bacteria on day of MIC testing)
0.5 to 8 µg/mL: Range of MICs ([1]; 25 isolates, Summary of Results, >128 was Replaced with 256) | Range of MICs ([1]; n=25 per group)
